# What was measured:
# Experiment in all cases: relative viability (nuclei count vs DMSO), 5 days (fraction); higher = more cells survive
# Sorafenib + Palbociclib = compound: CNC(=O)c1cc(Oc2ccc(NC(=O)Nc3ccc(Cl)c(C(F)(F)F)c3)cc2)ccn1 [Sorafenib] + CC(=O)c1c(C)c2cnc(Nc3ccc(N4CCNCC4)cn3)nc2n(C2CCCC2)c1=O [Palbociclib] (partner 0.5 µM)
# Summary of the method: (§1)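 Lung cancer cell lines, seeded in 1536-well plates, were treated the following day by pin tool with a single drug or with five library-drug doses (not always all listed) in √10 steps on top of a fixed anchor-drug dose. Cells were fixed and nuclei stained in one step after 5 days, and nuclei were counted. Relative viability is the nuclei count for treated wells divided by that for vehicle wells, reported as medians of duplicate plates.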
# Sorafenib + Luminespib = compound: CNC(=O)c1cc(Oc2ccc(NC(=O)Nc3ccc(Cl)c(C(F)(F)F)c3)cc2)ccn1 [Sorafenib] + CCNC(=O)c1noc(-c2cc(C(C)C)c(O)cc2O)c1-c1ccc(CN2CCOCC2)cc1 [Luminespib] (partner 0.01 µM)
# Summary of the method: as §1
# Sorafenib + Foretinib = compound: CNC(=O)c1cc(Oc2ccc(NC(=O)Nc3ccc(Cl)c(C(F)(F)F)c3)cc2)ccn1 [Sorafenib] + COc1cc2c(Oc3ccc(NC(=O)C4(C(=O)Nc5ccc(F)cc5)CC4)cc3F)ccnc2cc1OCCCN1CCOCC1 [Foretinib] (partner 0.25 µM)
# Summary of the method: as §1
# Sorafenib + Pemetrexed = compound: CNC(=O)c1cc(Oc2ccc(NC(=O)Nc3ccc(Cl)c(C(F)(F)F)c3)cc2)ccn1 [Sorafenib] + Nc1nc2[nH]cc(CCc3ccc(C(=O)N[C@@H](CCC(=O)O)C(=O)O)cc3)c2c(=O)[nH]1 [Pemetrexed] (partner 0.2 µM)
# Summary of the method: as §1
# Sorafenib + Vorinostat = compound: CNC(=O)c1cc(Oc2ccc(NC(=O)Nc3ccc(Cl)c(C(F)(F)F)c3)cc2)ccn1 [Sorafenib] + O=C(CCCCCCC(=O)Nc1ccccc1)NO [Vorinostat] (partner 1 µM)
# Summary of the method: as §1
Cell Line,relative viability (Sorafenib + Palbociclib; first compound 0.08 µM),relative viability (Sorafenib + Palbociclib; first compound 0.253 µM),relative viability (Sorafenib + Palbociclib; first compound 2.53 µM),relative viability (Sorafenib + Palbociclib; first compound 8 µM),relative viability (Sorafenib + Luminespib; first compound 0.08 µM),relative viability (Sorafenib + Luminespib; first compound 0.253 µM),relative viability (Sorafenib + Luminespib; first compound 2.53 µM),relative viability (Sorafenib + Luminespib; first compound 8 µM),relative viability (Sorafenib + Foretinib; first compound 0.08 µM),relative viability (Sorafenib + Foretinib; first compound 0.253 µM),relative viability (Sorafenib + Foretinib; first compound 2.53 µM),relative viability (Sorafenib + Foretinib; first compound 8 µM),relative viability (Sorafenib + Pemetrexed; first compound 0.08 µM),relative viability (Sorafenib + Pemetrexed; first compound 0.253 µM),relative viability (Sorafenib + Pemetrexed; first compound 8 µM),relative viability (Sorafenib + Vorinostat; first compound 0.08 µM),relative viability (Sorafenib + Vorinostat; first compound 0.253 µM),relative viability (Sorafenib + Vorinostat; first compound 2.53 µM),relative viability (Sorafenib + Vorinostat; first compound 8 µM),relative viability (Sorafenib + Pemetrexed; first compound 2.53 µM)
BEN,0.48,0.513,0.413,0.516,0.439,0.173,0.2,0.0694,0.755,0.518,0.811,0.526,0.839,0.657,0.674,0.567,0.621,0.685,0.593,
NCI-H2085,0.442,0.491,0.51,0.497,0.483,0.414,0.424,0.448,0.948,0.856,0.864,0.874,1.02,0.98,0.762,0.852,0.795,1.01,0.78,1.15
EMC-BAC-2,0.519,0.439,0.467,0.477,1.21,1.08,1.17,0.812,1.02,0.819,1,0.658,0.438,0.389,0.516,0.481,,0.546,0.479,0.41
A-427,0.531,0.553,0.589,0.474,0.971,0.951,0.757,0.831,1.24,0.989,0.94,0.754,0.926,0.919,0.954,0.84,0.894,0.914,1.01,1.05
LC-2-ad,0.54,0.456,0.447,0.393,1.01,1.04,1.06,0.879,0.923,0.989,0.985,0.744,0.305,0.293,0.274,0.723,0.674,0.617,0.514,0.258
ChaGo-K-1,0.908,0.894,,0.679,0.708,0.446,0.606,0.325,0.961,0.965,0.9,,0.247,0.258,0.248,0.737,0.689,0.775,0.557,0.264
NCI-H1650,0.363,0.493,0.401,0.26,0.183,0.183,0.193,0.209,1.43,1.24,1.32,0.365,0.405,0.454,0.334,0.505,0.567,0.633,0.424,0.531
SW 1573,0.39,0.363,0.417,0.09,0.239,0.255,0.166,0.117,1.09,0.791,0.995,0.777,0.911,,0.374,0.662,0.618,0.366,0.425,0.719
LOU-NH91,0.533,0.52,0.55,0.533,0.306,0.359,0.418,0.336,1.02,0.973,1.08,0.942,0.419,0.37,,1.03,0.881,1.11,0.493,0.436
NCI-H1944,0.339,0.346,0.371,0.306,0.697,0.634,,0.552,0.92,0.97,0.946,0.747,0.697,0.557,0.438,0.539,0.497,0.626,0.417,0.735
HCC-366,0.393,0.424,0.323,0.353,,,,,0.927,0.957,0.937,0.94,0.158,0.124,0.174,0.315,0.343,0.256,0.22,0.127
COR-L 105,0.452,0.365,0.411,0.384,1,,1.05,0.623,1.32,0.982,1.18,1.03,1.26,1.31,0.852,1.01,0.696,0.946,0.551,1.32
SK-MES-1,0.301,0.292,0.292,0.289,0.752,0.69,0.791,0.412,1.07,0.896,0.903,0.818,0.999,0.84,,1.15,0.914,,0.842,0.881
NCI-H2023,0.49,0.444,0.435,0.106,0.828,0.761,0.826,0.136,1.18,0.795,0.972,0.591,0.267,0.252,0.121,0.954,0.571,0.599,0.339,0.226
NCI-H1755,0.482,,0.461,,0.67,0.399,0.371,0.404,0.926,0.863,0.921,0.729,,0.385,0.355,0.81,0.702,0.843,0.549,0.419
HARA,0.295,0.286,0.303,0.339,0.936,0.696,0.609,0.526,0.967,0.916,0.898,0.889,0.246,0.237,0.233,0.517,0.6,0.512,0.569,0.257
COR-L23,0.301,0.288,0.319,0.264,0.731,0.688,0.525,0.135,1.13,0.982,0.937,0.765,0.2,0.199,0.212,0.512,0.413,0.478,0.32,0.19
NCI-H1355,0.421,0.41,0.431,0.39,0.717,0.687,0.779,0.62,1.08,0.971,0.937,,1.04,0.953,0.963,0.752,0.563,0.662,0.505,1.02

Cell Line,relative viability (Sorafenib + Palbociclib; first compound 0.08 µM),relative viability (Sorafenib + Palbociclib; first compound 0.253 µM),relative viability (Sorafenib + Palbociclib; first compound 2.53 µM),relative viability (Sorafenib + Palbociclib; first compound 8 µM),relative viability (Sorafenib + Luminespib; first compound 0.08 µM),relative viability (Sorafenib + Luminespib; first compound 0.253 µM),relative viability (Sorafenib + Luminespib; first compound 2.53 µM),relative viability (Sorafenib + Luminespib; first compound 8 µM),relative viability (Sorafenib + Foretinib; first compound 0.08 µM),relative viability (Sorafenib + Foretinib; first compound 0.253 µM),relative viability (Sorafenib + Foretinib; first compound 2.53 µM),relative viability (Sorafenib + Foretinib; first compound 8 µM),relative viability (Sorafenib + Pemetrexed; first compound 0.08 µM),relative viability (Sorafenib + Pemetrexed; first compound 0.253 µM),relative viability (Sorafenib + Pemetrexed; first compound 8 µM),relative viability (Sorafenib + Vorinostat; first compound 0.08 µM),relative viability (Sorafenib + Vorinostat; first compound 0.253 µM),relative viability (Sorafenib + Vorinostat; first compound 2.53 µM),relative viability (Sorafenib + Vorinostat; first compound 8 µM),relative viability (Sorafenib + Pemetrexed; first compound 2.53 µM)
NCI-H1437,0.324,0.256,0.304,0.246,1.1,1.06,1.17,,1.26,1.17,1.13,0.742,0.335,0.312,0.184,0.782,0.783,0.705,0.307,0.268
NCI-H2087,0.245,0.209,0.15,0.159,0.192,0.183,0.236,0.123,1.36,0.977,0.819,0.632,0.694,0.622,0.239,0.615,0.545,0.474,0.209,0.61
HOP-62,0.454,0.372,0.358,0.263,0.981,0.865,0.705,0.886,1.05,0.916,0.749,0.676,0.324,0.303,0.135,0.736,0.363,0.368,0.276,0.193
NCI-H2228,0.692,0.883,0.589,0.517,0.181,0.178,0.154,0.105,0.993,0.714,0.819,0.543,0.361,0.323,0.31,0.672,0.598,0.265,0.315,0.244
UMC-11,0.284,0.355,0.334,0.188,1.03,1.03,1,0.182,0.968,1.02,0.941,0.58,0.869,0.788,0.474,0.395,0.422,0.379,0.36,0.772
NCI-H1915,0.54,0.574,0.581,0.413,0.848,0.678,,0.751,1.08,0.969,1.03,1.09,0.423,0.45,0.504,0.444,0.364,0.355,0.582,0.433
LK-2,0.703,0.588,0.528,0.542,0.228,0.197,0.175,0.172,1.06,1,0.976,0.747,0.331,0.254,0.194,0.371,0.298,0.143,0.148,0.303
NCI-H522,0.988,0.92,1.2,0.591,1.28,1.19,0.929,0.992,,,,,1.02,0.782,0.883,1.02,0.81,0.89,0.741,0.863
NCI-H1395,0.696,,0.613,0.644,0.742,0.703,0.576,0.53,1.08,0.931,1.04,0.854,1,,,0.872,,1.06,0.748,0.917
HCC-78,0.468,0.471,0.529,0.476,,,,,0.632,0.537,0.801,0.905,0.936,0.879,0.888,0.459,0.331,0.532,0.496,0.847
NCI-H1792,0.722,0.684,0.646,0.654,0.438,0.358,0.534,0.353,,,,,0.97,0.527,0.567,,,,,0.578
NCI-H596,,,,,0.889,1.04,0.977,0.911,0.73,0.958,0.866,0.66,0.495,0.47,0.52,0.748,0.547,0.929,0.717,0.563
HCC-44,0.96,0.771,0.858,0.834,1.09,1.01,1.02,0.992,,,,,0.652,0.607,0.61,1.03,1.05,1.09,1.16,0.599
ABC-1,0.712,0.682,0.854,0.725,0.815,0.378,0.538,0.158,1.06,1.11,1.38,0.392,,,,1.23,0.811,1.22,0.482,
NCI-H1703,,,,,,,,,0.384,0.283,0.298,0.278,,,,,,,,
NCI-H1563,,,,,0.533,0.471,0.527,0.529,0.992,0.929,0.943,0.577,0.969,0.654,0.659,,,,,0.775
NCI-H727,0.688,0.616,0.681,0.569,0.528,0.344,0.501,0.221,0.936,1.11,0.909,0.739,,,,1.38,1.11,1.23,1.25,
IA-LM,,,,,,,,,,0.624,0.61,0.757,,,,,0.647,0.436,0.508,

# — the supplement of paper PMC10307832
